Literature values as cited in patent US20150216918A1, “FERMENTED SOY NUTRITIONAL SUPPLEMENTS INCLUDING MUSHROOM COMPONENTS” (priority 2010, published 2015).

Tested on: tumor cells

Compound: CC(C)CCCCCCCCCCCC(=O)O [MDT-13, 13-methyl-tetradecanoic acid]
- induction of apoptosis in tumor cells: induce apoptosis
